Measurements reported in patent US20240307397A1, “PHARMACEUTICAL COMPOSITION COMPRISING PI3K AND DNA-PK DUAL INHIBITOR FOR PREVENTING OR TREATING PERIPHERAL T CELL LYMPHOMA” (BORYUNG CORPORATION, priority 2021, published 2024).

Experiments:
[1] = test system: subjects with advanced hematologic malignancies; experiment: Phase Ia dose escalation clinical trial: safety, tolerability, DLT and MTD/RP2D; assay type: in vivo
Excerpt: The phase Ia part (dose escalation) of this clinical trial is designed to determine safety, tolerability, and maximum tolerated dose (MTD)/starting dose (RP2D) for clinical phase Ib/II of the test drug in subjects with relapsed/refractory B-cell lymphoma, chronic lymphocytic leukemia (CLL)/small lymphocytic leukemia (SLL) and peripheral T-cell lymphoma (PTCL).
A method for escalating a dose during the treatment period (phase Ia part) is as follows. At least of 1 and up to 6 subjects may be enrolled in cohorts 1 and 2. 3 to 6 subjects may be enrolled into subsequent cohorts.
(2) Cohort 3 and all subsequent cohorts will follow the standard 3+3 design. […] If 1 of the 3 subjects experiences a DLT, that dose level will be expanded to 6 subjects (3 additional subjects will be enrolled). If 2 subjects at a given dose level experience a DLT, the maximum tolerated dose (MTD) will have been exceeded and further accrual to the cohort will be terminated. The next lower dose level will be expanded to 6 subjects or if 6 subjects have already been enrolled and no more than 1 of the 6 experienced a DLT, then this lower dose level will be considered the MTD (FIG. 3).
The dose limiting toxicity (DLT) in this clinical trial may include the followings:
1) Assessed by adverse events, vital signs, electrocardiogram (ECG), clinical laboratory tests, physical examination, ECOG performance status up to the last Safety Follow-up Visit, and baseline medical conditions.
2) Tolerability assessment includes review of dose interruptions, reductions, and doses administered up to the last Safety Follow-up Visit.
3) Determination of the maximum tolerated dose (MTD) and the starting dose (RP2D) for clinical phase Ib/II are based on dose limiting toxicity (DLT) during Cycle 1.
The number and proportion of subjects experiencing the dose limiting toxicity (DLT) are summarized based on the dose-limiting toxicity evaluable set. […] Estimation of maximum tolerated dose (MTD)/recommended dose for clinical phase Ib/II (RP2D) are based upon the methods for determination of MTD/RP2D provided herein (see 3. Overall design, 2) How to escalate dose of test drug).
A treatment emergent adverse event (TEAE) is defined as any AE that occurs after the first administration of the test drug through 30 days after the last administration of the test drug, or any event that is present at baseline but worsens in severity. […] All the adverse events and toxicities are graded according to CTCAE (version 5.0). Analysis may include, but is not limited to, the followings: […]

[2] = test system: advanced hematologic malignancies (PTCL, DLBCL, MZL, CTCL-MF); experiment: Phase Ia clinical trial: tumor response assessment; assay type: in vivo, humans
Procedure: 1) Tumor response is assessed for both phases la and Ib. The anticancer activity of the test drug is assessed by applying various criteria through imaging tests every two cycles of clinical trials and at the end of therapy (EOT) (optional) (see table 14 for disease assessment criteria below), or for liquid tumors, bone marrow aspirates/biopsies and blood assessments are performed. Tumor response parameters that are assessed include the following: (1) Best overall response: complete response (CR), partial response (PR), stable disease (SD, lasting 12 weeks), or disease progression (DP) Details of the disease assessment criteria and the tools used to determine efficacy parameters are as follows (Table 14). The tumor response (lymphoma (B-cell and T-cell), CLL/SLL, Waldenstrom macroglobulinemia) following administration of the test drug in phases Ia and Ib is assessed using the criteria in table 14. Tumor response parameters vary according to the above applied criteria and may include the followings: The best overall response is defined as the best response across all time points (in the order of CR, PR, SD, and DP) post-treatment. The best overall response (CR, PR, SD, or DP) is summarized by number of subjects and percentages. In the case of best response equal to SD, the minimum duration for SD should be met. For the purpose of calculating an SD rate, the rate will be the percentage (%) of subjects who continue to have SD for at least 12 weeks.

[3] = Plasma pharmacokinetic analyses in clinical trial subjects (C1D1, C1D15); assay type: in vivo, humans
Excerpt: 1) Plasma concentration-time profile of the test drug (days 1 and 15), urine concentration data (day 15), and derived single dose plasma PK and multiple dose plasma and urine PK parameters (if applicable). • Blood samples are collected according to a predetermined schedule to measure a plasma concentration of the test drug (Table 5). In phase Ia clinical trials, entire urine needs to be collected over each dosing interval according to a pre-determined schedule, starting after dose administration (Table 5).
• Samples for the determination of the test drug in plasma and urine are analyzed using appropriate validated bioanalytical methods. • Pharmacokinetic parameters are derived using noncompartmental methods with Phoenix® WinNonlin® Version 8.0 or higher (Certara, L.P. Princeton, New Jersey, USA) and/or SAS® Version 9.2 or higher (SAS Institute, Inc., Cary, North Carolina, USA). Actual elapsed time from dosing will be used for the final plasma PK parameter calculations. A minimum of 3 quantifiable postdose concentrations will be required for all calculations. • The PK parameters to be determined for plasma concentration of the test drug on day 1 of cycle 1 and day 15 of cycle 1, if calculable, include but not be limited to the following parameters presented table 6.
Plasma concentrations and PK parameters of the test drug are listed and summarized by dose, cycle, and clinical trial phase using descriptive statistics.
On the day 1 of cycle 1 (C1D1), plasma samples for pharmacokinetic analyses in clinical trial subjects were obtained before and after administration of the test drug (0.5, 1, 1.5, 2, 3, 4, 6, 9, 12 and 24 hours). As a result of the collected pharmacokinetic analyses, it was confirmed that a maximum plasma concentration after a single dose of 50 mg QD, 100 mg QD and 200 mg QD of the test drug ranged […], and a systemic exposure (based on AUC0-24) ranged from 2760 to 21850 ng*h per mL.

[4] = test system: regulatory T cells (Tregs); experiment: Whole blood flow-cytometry pharmacodynamics, regulatory T cells; assay type: in vivo, humans; settings: as plasma concentration of the test drug increased (FIG. 6A)
Procedure: (§1) Blood samples for pharmacodynamic analyses of the test drug were collected in phase Ia (dose escalation part). Whole blood samples were evaluated by flow-cytometry after coimmunostaining for CD3^+, CD4^+, CD25^+, CD127low and CD8^+. Through this, we tried to observe the effects of the test drug on regulatory T cells (Tregs) and CD8^+ T cells.

CD8+ T cells = experiment: Whole blood flow-cytometry pharmacodynamics, CD8+ T cells; assay type: in vivo, humans; settings: as plasma concentration of the test drug increased (FIG. 6B)
Procedure: as §1

[5] = of 11 clinical trial subjects, oral QD
[6] = 11 of 12 subjects enrolled in phase Ia assessed
[7] = multiple dosing (C1D15), 50 mg to 200 mg cohort

SMILES: C[C@H](Nc1ncnc2[nH]ccc(=O)c12)c1c(Cl)c2cccc(Cl)c2c(=O)n1-c1ccccc1 [test drug, 4-[[(1S)-1-(4,8-dichloro-1-oxo-2-phenyl-3-isoquinolyl)ethyl]amino]-8H-pyrido[2,3-d]pyrimidin-5-one]
- dose limiting toxicities (DLTs) observed ([1]; cohort 4, 325 mg QD): two
- serious adverse events rated as grades 3 (severe) to 5 (death) ([1]; cohorts 1 to 3 (50, 100, 200 mg QD)): no serious adverse events
- subjects with TEAEs evaluated to be related to the test drug ([1]; cohorts 1 to 3 (50, 100, 200 mg QD), 3 of 5 subjects): 60.0%
- subjects with treatment-emergent adverse events (TEAEs) ([1]; cohorts 1 to 3 (50, 100, 200 mg QD), 4 out of 5 subjects): 80.0%
- administration-related deaths ([1]; cohorts 1 to 3, 5 subjects): no administration-related deaths occurred
- subjects with TEAE of grade 1 (mild) ([1]; cohorts 1 to 3, 5 subjects): 1 subject
- subjects with TEAE of grade 2 (moderate) ([1]; cohorts 1 to 3, 5 subjects): 2 subjects
- subjects with TEAE of grade 4 (life-threatening) ([1]; cohorts 1 to 3, 5 subjects, thrombocytopenia, not related to the test drug): 1 subject
- dose limiting toxicity (DLT) ([1]; dose range of cohorts 1 to 3 (50, 100, 200 mg QD)): no dose limiting toxicity
- tolerability ([1]; dose range up to 200 mg QD): excellent
- dose limiting toxicity (DLT) ([1]; expansion cohort 200 mg QD, 6 subjects): No dose limiting toxicity
- subjects showing grade 3 skin reaction [1, 5]: 2 subjects
- subjects showing hepatotoxicity [1, 5]: 3 subjects
- maximum tolerated dose (MTD) ([1]; oral, 28-day cycle, phase Ia): 200 mg QD
- recommended starting dose (RP2D) for clinical phase Ib/II ([1]; recommended by the Safety Monitoring Committee): 200 mg QD
- outcome of adverse events (skin reaction, hepatotoxicity) ([1]; upon discontinuation of the test drug): manageable and recovered to grade 0 or 1
- complete response (CR) ([2]; 8 subjects diagnosed with PTCL): 1 subject
- disease control rate (DCR) ([2]; 8 subjects diagnosed with PTCL): 87.5%
- disease progression (PD) ([2]; 8 subjects diagnosed with PTCL): 1 subject
- partial responses (PR) ([2]; 8 subjects diagnosed with PTCL): 2 subject
- complete response (CR) [2, 6]: 1 subject
- disease progression (PD) [2, 6]: 2 subjects
- partial response (PR) [2, 6]: 2 subjects
- activity in peripheral T-cell lymphoma (PTCL) subjects ([2]; PTCL subjects, phase Ia): preliminary activity
- dose dependence of exposure concentration ([3]; C1D1, dose range of 50 mg to 200 mg (FIG. 4)): increased in a dose-dependent manner
- maximum plasma concentration ([3]; C1D1, single dose of 50, 100 and 200 mg QD, plasma): ≤ 2443 ng/mL
- increase in exposure based on AUCtau [3, 7]: ~4.97 fold
- increase in exposure based on Cmax [3, 7]: ~2.92 fold
- dose dependence of exposure concentration ([3]; multiple dosing (C1D15), dose range of 50 mg to 200 mg (FIG. 5)): increased in a dose-dependent manner
- accumulation ([3]; multiple dosing, dose range of 50 mg to 200 mg): no accumulation observed
- change of regulatory T cells (Tregs) compared to the baseline value [4]: decreased
- change of CD8+ T cells compared to the baseline value (CD8+ T cells): increased
